Measured values taken from patent US11787775B2, “Therapeutic compounds and methods of use” (priority 2020, dated 2023).
pIC50: −log10 of the molar value. Where two headings read alike, the source gives them in different places.

Experiments:
Assay in all cases: TEAD lipid pocket TR-FRET (Lipid HTRF) probe competition assay
Type in all cases: binding
TEAD3 = TEAD3 (Homo sapiens (Human), UniProt Q99594); conditions: 4 hours incubation with compound
Description: (§1) His-tagged TEAD proteins are pre-incubated with TEAD project compounds for 30 minutes or 4 hours at room temperature. Biotinylated lipid pocket probes are then added to the TEAD/Compound mixture and incubated for 60 minutes at room temperature. The lipid pocket probe competes with the test compound for the TEAD lipid pocket until equilibrium is reached. After 60 minutes, Europium labelled anti-His (Perkin Elmer #ADO 110) and XL665 labelled streptavidin (CIS Bio 610SAXAC) are added to the TEAD/test compound/lipid pocket mixture and incubated for 30 minutes or 4 hours. […] If a TEAD lipid pocket binder such as binds and displaces the lipid pocket probe, the disruption of the TEAD:probe interaction results in a decrease in TR-FRET signal. The potency of compounds as TEAD lipid pocket binders is determined by IC50 value generated using a non-linear 4 parameter curve fit.
(§2) Note that the “Compound Number” in Table 2 and Table 3 corresponds to the “Compound Number” in Table 1.

TEAD2 = TEAD2 (Homo sapiens (Human), UniProt Q15562)
Description: as §1, §2

TEAD4 = TEAD4 (Homo sapiens (Human), UniProt Q15561)
Description: as §1, §2

TEAD1 = TEAD1 (Homo sapiens (Human), UniProt P28347)
Description: as §1, §2

[1] = 4 hours incubation with compound, read-out: Lipid HTRF TEAD2 IC50
[2] = 4 hours incubation with compound, read-out: Lipid HTRF TEAD4 IC50
[3] = 4 hours incubation with compound, read-out: Lipid HTRF TEAD1 IC50
[4] = Lipid HTRF TEAD4 IC50, 4 hours incubation with compound

Chain of TEAD3 (Q99594 whole entry, species assumed): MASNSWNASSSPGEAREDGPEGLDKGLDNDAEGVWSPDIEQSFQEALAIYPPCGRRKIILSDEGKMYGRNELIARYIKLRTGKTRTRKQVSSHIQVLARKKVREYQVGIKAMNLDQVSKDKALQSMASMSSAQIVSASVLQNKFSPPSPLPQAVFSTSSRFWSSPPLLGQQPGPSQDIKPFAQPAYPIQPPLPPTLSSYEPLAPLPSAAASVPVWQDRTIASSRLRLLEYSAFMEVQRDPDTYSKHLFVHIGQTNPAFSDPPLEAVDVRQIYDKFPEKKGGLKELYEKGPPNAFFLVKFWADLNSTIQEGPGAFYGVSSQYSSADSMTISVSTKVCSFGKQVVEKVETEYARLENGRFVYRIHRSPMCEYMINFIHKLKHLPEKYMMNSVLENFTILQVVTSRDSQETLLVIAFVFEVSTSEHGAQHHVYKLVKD
Chain of TEAD4 (Q15561 whole entry, species assumed): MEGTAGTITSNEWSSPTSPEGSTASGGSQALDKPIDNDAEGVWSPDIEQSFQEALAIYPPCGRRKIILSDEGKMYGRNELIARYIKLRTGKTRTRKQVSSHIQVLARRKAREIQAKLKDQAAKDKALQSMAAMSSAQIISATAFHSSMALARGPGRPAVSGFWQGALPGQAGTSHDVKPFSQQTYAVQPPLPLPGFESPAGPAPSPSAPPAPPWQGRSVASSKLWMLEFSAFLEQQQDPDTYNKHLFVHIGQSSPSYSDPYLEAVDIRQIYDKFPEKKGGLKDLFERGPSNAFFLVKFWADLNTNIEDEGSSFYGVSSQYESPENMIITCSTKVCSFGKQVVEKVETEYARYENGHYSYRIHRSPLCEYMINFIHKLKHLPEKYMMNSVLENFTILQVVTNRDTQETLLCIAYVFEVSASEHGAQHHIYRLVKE
Chain of TEAD1 (P28347 whole entry, species assumed): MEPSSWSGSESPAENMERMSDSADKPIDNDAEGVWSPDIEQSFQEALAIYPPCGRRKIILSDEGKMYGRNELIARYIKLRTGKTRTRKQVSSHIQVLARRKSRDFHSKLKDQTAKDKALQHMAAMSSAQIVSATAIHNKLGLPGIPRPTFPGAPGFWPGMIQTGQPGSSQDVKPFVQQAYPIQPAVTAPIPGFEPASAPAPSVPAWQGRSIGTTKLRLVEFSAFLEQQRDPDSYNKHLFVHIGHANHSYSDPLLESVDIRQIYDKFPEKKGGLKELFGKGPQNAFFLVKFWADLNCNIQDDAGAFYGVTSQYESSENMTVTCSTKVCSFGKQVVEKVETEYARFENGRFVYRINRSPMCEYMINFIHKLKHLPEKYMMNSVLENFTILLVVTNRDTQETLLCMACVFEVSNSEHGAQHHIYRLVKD
Chain of TEAD2 (Q15562 whole entry): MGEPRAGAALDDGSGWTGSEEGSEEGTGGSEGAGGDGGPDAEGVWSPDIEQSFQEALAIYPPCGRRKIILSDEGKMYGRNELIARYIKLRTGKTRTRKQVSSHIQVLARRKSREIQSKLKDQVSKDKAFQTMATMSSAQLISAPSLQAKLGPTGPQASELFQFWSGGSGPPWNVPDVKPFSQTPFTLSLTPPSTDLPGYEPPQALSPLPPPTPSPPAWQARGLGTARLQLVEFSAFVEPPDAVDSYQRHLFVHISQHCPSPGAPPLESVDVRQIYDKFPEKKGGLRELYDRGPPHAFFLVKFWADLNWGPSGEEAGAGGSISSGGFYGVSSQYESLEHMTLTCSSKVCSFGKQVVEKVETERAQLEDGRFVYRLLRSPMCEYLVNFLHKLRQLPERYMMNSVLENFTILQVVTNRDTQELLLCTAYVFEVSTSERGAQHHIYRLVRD

Row | Compound | pIC50 (TEAD3) | pIC50 (TEAD2; [1]) | pIC50 (TEAD4; [2]) | pIC50 (TEAD1; [3]) | pIC50 (TEAD4; [4]) | pIC50 (TEAD1; Lipid HTRF TEAD1 IC50, 4 hours incubation with compound) | pIC50 (TEAD2; Lipid HTRF TEAD2 IC50, 4 hours incubation with compound)
1 | C=C(CNc1cc(-c2ccc(S(F)(F)(F)(F)F)cc2)c2c(c1C#N)CCO2)C(N)=O [Compound 48, 2-[[[4-cyano-7-[4-(pentafluoro-lambda6-sulfanyl)phenyl]-2,3-dihydrobenzofuran-5-yl]amino]methyl]prop-2-enamide] | 5.59 | 6.66 | 6.59 | 6.60 | – | – | –
2 | C=C(CNc1cc(-c2ccc(OC(F)(F)F)cc2)c2ncsc2c1C#N)C(=O)NO [Compound 41, 2-[[[7-cyano-4-[4-(trifluoromethoxy)phenyl]-1,3-benzothiazol-6-yl]amino]methyl]prop-2-enehydroxamic acid] | 6.18 | 8.00 | 7.40 | 7.10 | – | – | –
3 | [2H]C1([2H])COc2c(-c3ccc(C(C)C)cc3)cc(NCC(=C)C(=O)NO)c(C#N)c21 [Compound 29, 2-[[[4-cyano-3,3-dideuterio-7-(4-isopropylphenyl)-2H-benzofuran-5-yl]amino]methyl]prop-2-enehydroxamic acid] | 6.37 | 8.00 | 7.40 | 7.22 | – | – | –
4 | C=C(CNc1cc(-c2ccc(S(F)(F)(F)(F)F)cc2)c2ncsc2c1C#N)C(=O)NO [Compound 51, 2-[[[7-cyano-4-[4-(pentafluoro-lambda6-sulfanyl)phenyl]-1,3-benzothiazol-6-yl]amino]methyl]prop-2-enehydroxamic acid] | 5.92 | 7.52 | 7.22 | 6.70 | – | – | –
5 | C=C(CNc1cc(-c2ccc(OC(F)(F)F)cc2)c2c(c1CO)CCO2)C(N)=O [Compound 35, 2-[[[4-(hydroxymethyl)-7-[4-(trifluoromethoxy)phenyl]-2,3-dihydrobenzofuran-5-yl]amino]methyl]prop-2-enamide] | 5.77 | 7.52 | 6.60 | 6.80 | – | – | –
6 | C=C(CNc1cc(-c2ncc(C(C)C)s2)c2c(c1C#N)CCO2)C(=O)NO [Compound 27, 2-[[[4-cyano-7-(5-isopropylthiazol-2-yl)-2,3-dihydrobenzofuran-5-yl]amino]methyl]prop-2-enehydroxamic acid] | < 4.30 | 6.96 | 6.77 | 6.51 | – | – | –
7 | C=C(CNc1cc(-c2cc(C(C)C)cs2)c2c(c1C#N)CCO2)C(=O)O [Compound 32, 2-[[[4-cyano-7-(4-isopropyl-2-thienyl)-2,3-dihydrobenzofuran-5-yl]amino]methyl]prop-2-enoic acid] | 6.37 | 7.40 | 8.00 | 8.00 | – | – | –
8 | C=C(CNc1cc(-n2ccc(C(C)C)n2)c2c(c1C#N)CCO2)C(=O)NO [Compound 36, 2-[[[4-cyano-7-(3-isopropylpyrazol-1-yl)-2,3-dihydrobenzofuran-5-yl]amino]methyl]prop-2-enehydroxamic acid] | < 4.30 | 6.15 | < 4.30 | < 4.30 | – | – | –
9 | C=C(CNc1cc(-c2ccc(S(F)(F)(F)(F)F)cc2)c2c(c1C#N)CCO2)C(=O)O [Compound 45, 2-[[[4-cyano-7-[4-(pentafluoro-lambda6-sulfanyl)phenyl]-2,3-dihydrobenzofuran-5-yl]amino]methyl]prop-2-enoic acid] | 6.04 | 6.77 | 7.10 | 7.52 | – | – | –
10 | C=C(CNc1cc(-c2ccc(OC(F)(F)F)cc2)c2c(c1C#N)CCO2)C(=O)N(C)O [Compound 43, 2-[[[4-cyano-7-[4-(trifluoromethoxy)phenyl]-2,3-dihydrobenzofuran-5-yl]amino]methyl]-N-hydroxy-N-methyl-prop-2-enamide] | 4.74 | 5.77 | 6.28 | 6.40 | – | – | –
11 | [2H]C1([2H])COc2c(-c3ccc(C(C)C)cc3)cc(NCC(=C)C(=O)O)c(C#N)c21 [Compound 40, 2-[[[4-cyano-3,3-dideuterio-7-(4-isopropylphenyl)-2H-benzofuran-5-yl]amino]methyl]prop-2-enoic acid] | 6.17 | 7.40 | – | – | 7.70 | 7.70 | –
12 | C=C(CNc1cc(-c2ccc(OC(F)(F)F)cc2)c2c(c1C#N)CCO2)C(N)=O [Compound 44, 2-[[[4-cyano-7-[4-(trifluoromethoxy)phenyl]-2,3-dihydrobenzofuran-5-yl]amino]methyl]prop-2-enamide] | 5.92 | 7.40 | 6.85 | 6.96 | – | – | –
13 | [2H]C1([2H])Cc2c(C#N)c(NCC(=C)C(=O)NO)cc(-c3ccc(OC(F)(F)F)cc3)c2O1 [Compound 37, 2-[[[4-cyano-2,2-dideuterio-7-[4-(trifluoromethoxy)phenyl]-3H-benzofuran-5-yl]amino]methyl]prop-2-enehydroxamic acid] | 6.38 | – | 7.30 | 7.30 | – | – | 8.00
14 | C=C(CNc1cc(-c2ccc(S(F)(F)(F)(F)F)cc2)c2c(c1C#N)CCO2)C(=O)NO [Compound 38, 2-[[[4-cyano-7-[4-(pentafluoro-lambda6-sulfanyl)phenyl]-2,3-dihydrobenzofuran-5-yl]amino]methyl]prop-2-enehydroxamic acid] | 6.15 | 7.52 | 7.10 | 7.05 | – | – | –
15 | C=C(CNc1cc(-c2ccc(OC(F)(F)F)cc2)c2c(c1CO)CCO2)C(=O)NO [Compound 46, 2-[[[4-(hydroxymethyl)-7-[4-(trifluoromethoxy)phenyl]-2,3-dihydrobenzofuran-5-yl]amino]methyl]prop-2-enehydroxamic acid] | 6.36 | 8.00 | 7.22 | 7.30 | – | – | –
16 | C=C(CNc1cc(-c2ccc(OC(F)(F)F)cc2)c2c(c1C#N)CCO2)C(=O)NO [Compound 39, 2-[[[4-cyano-7-[4-(trifluoromethoxy)phenyl]-2,3-dihydrobenzofuran-5-yl]amino]methyl]prop-2-enehydroxamic acid] | 6.40 | 8.00 | 7.22 | 7.40 | – | – | –
17 | C=C(CNc1cc(-c2nc(C(C)C)cs2)c2c(c1C#N)CCO2)C(=O)NO [Compound 31, 2-[[[4-cyano-7-(4-isopropylthiazol-2-yl)-2,3-dihydrobenzofuran-5-yl]amino]methyl]prop-2-enehydroxamic acid] | < 4.30 | 6.07 | 4.44 | < 4.30 | – | – | –
18 | [2H]C1([2H])COc2c(-c3ccc(C(C)C)cc3)cc(NCC(=C)C(N)=O)c(C#N)c21 [Compound 33, 2-[[[4-cyano-3,3-dideuterio-7-(4-isopropylphenyl)-2H-benzofuran-5-yl]amino]methyl]prop-2-enamide] | 5.85 | 7.22 | – | 6.74 | 7.10 | – | –
19 | C=C(CNc1cc(-c2ncc(C(C)C)s2)c2c(c1C#N)CCO2)C(=O)O [Compound 49, 2-[[[4-cyano-7-(5-isopropylthiazol-2-yl)-2,3-dihydrobenzofuran-5-yl]amino]methyl]prop-2-enoic acid] | 5.55 | 6.62 | 7.05 | 6.51 | – | – | –
